Experimental findings from PMC6271425, “Synthesis and Sar Study of Diarylpentanoid Analogues as New Anti-Inflammatory Agents” (Molecules, 2014) are described below.

Entries after “also recorded” stand apart in the source; their conditions may differ. Where two headings read alike, the source gives them in different places.

Series [1] in a line: Cell cytotoxicity determination (MTT assay). The class given is cell-based, murine. The following applies: mouse, RAW 264.7 macrophage cells, RAW 264.7 cells, read-out: Cytotoxicity IC50 (µM) ± S.E.M. The procedure: (§1) The synthesized compounds were screened for NO suppression activity in IFN-γ/LPS-stimulated RAW 264.7 macrophages at a 50 µM test concentration. […] The IC50 values of the fifty-seven bioactive compounds were determined and compared to that of the positive control, curcumin. An MTT assay was also carried out to confirm that NO inhibition was not due to cytotoxicity. […] The complete bioassay results of all the compounds are provided as Table S2 in Supplementary Data.
(§2) RAW 264.7 murine macrophages cells obtained from American Type Culture Collection (ATCC, Rockville, MD, USA) were grown in Dulbecco’s Modified Eagle’s Medium (DMEM) containing 10% fetal bovine serum (FBS) and 1% penicillin/streptomycin in a 95% air and 5% CO2 atmosphere at 37 °C.
(§3) Supernatant in each well was removed followed by addition of 100 µL DMEM. Subsequently, 20 µL of 3-(4,5-dimethylthiazol-2-yl)-2,5-diphenyltetrazolium bromide (MTT, 5 mg/mL) was then added and the plate was incubated in a 95% air and 5% CO2 atmosphere at 37 °C for 4 h. The mixture of culture media and MTT in all wells were removed and the purplish formazan crystals formed were dissolved in dimethyl sulfoxide (DMSO) and further incubated for 15 min at room temperature. The color intensity was then measured at 570 nm at room temperature.
In general terms: Formazan colour is commonly taken as a measure of viable cells.

A further series deals with RAW 264.7 cells. Description: Cell cytotoxicity determination (MTT assay). The class given is cell-based, murine. The following applies: read-out: Cytotoxicity IC50 (µM) ± S.E.M. The procedure:
as §1, §2, §3

Series [2] deals with NO production in IFN-γ/LPS-stimulated RAW 264.7 macrophages. Description: NO suppression (Griess nitrite determination) in IFN-γ/LPS-stimulated RAW 264.7 macrophages. It counts as cell-based, murine. Conditions: for NO Inhibition at 50 µM (%) ± S.E.M: 50 µM test concentration; for inhibition at 50 µM: RAW264.7, 50 µM test concentration, read-out: NO Inhibition at 50 µM (%) ± S.E.M. The procedure:
The synthesized compounds were screened for NO suppression activity in IFN-γ/LPS-stimulated RAW 264.7 macrophages at a 50 µM test concentration. […] The IC50 values of the fifty-seven bioactive compounds were determined and compared to that of the positive control, curcumin. An MTT assay was also carried out to confirm that NO inhibition was not due to cytotoxicity. […] The complete bioassay results of all the compounds are provided as Table S2 in Supplementary Data. RAW 264.7 murine macrophages cells obtained from American Type Culture Collection (ATCC, Rockville, MD, USA) were grown in Dulbecco’s Modified Eagle’s Medium (DMEM) containing 10% fetal bovine serum (FBS) and 1% penicillin/streptomycin in a 95% air and 5% CO2 atmosphere at 37 °C. RAW 264.7 cells at 90%–95% confluency were detached and seeded (50,000 cells/well) into a 96-well culture plate with 50 μL of DMEM and incubated for 24 h. The cells were then stimulated in […] of LPS (Escherichia coli, serotype 0111:B4) and 1 ng/ml of interferon-gamma (IFN-γ) in the presence or absence of test compounds for 17 h. Nitrite concentration was then determined by Griess assay by reacting 50 μL of cell culture supernatant with 50 μL of Griess reagent (1% sulfanilamide and 0.1% N-(1-naphthyl)ethylenediamine dihydrochloride in 2.5% phosphoric acid) at room temperature. The optical density was measured at 550 nm after 5 min of incubation at room temperature with a microplate reader.

The nature of series [3]: Chemical stability test (UV-visible spectra in phosphate buffer pH 7.4). It counts as physicochemical. Conditions: 20 μM in phosphate buffer pH 7.4, 1% DMSO, 30 min at 5-min intervals, 25 °C. The procedure: Poor chemical stability of curcumin has been proven as one of the important factors, which cause its low bioavailability. Therefore, in the present study, we further tested the two best compounds (88 and 97) for their chemical stability at physiological pH and compared it to that of curcumin used as reference. The test was carried out by observing the ultraviolet spectral changes of the targeted compounds for 30 minutes with 5-minutes intervals in phosphate buffer (pH 7.4). Figure 8, Figure 9 and Figure 10 depict the ultraviolet changes of curcumin, compound 88 and compound 97, respectively.
Absorbance readings were taken from 300–600 nm using a SpectraMax Plus 384 (Molecular Devices LLC, Sunnyvale, CA, USA). A stock solution of 50 mM curcumin or active compounds 88 and 97 were prepared and diluted by phosphate buffer (pH 7.4), containing 1% dimethyl sulfoxide (DMSO), to a final concentration of 20 μM. The ultraviolet absorption spectra were collected for over 30 min at 5-min intervals at 25 °C. All spectral measurements were carried out in a 1 cm path-length quartz cuvette.

The mark [4] stands for this setting: IFN-γ/LPS-stimulated RAW 264.7 cells.
The mark [5] stands for this setting: IFN-γ/LPS-stimulated RAW 264.7 cells, read-out: NO Inhibition IC50 (µM) ± S.E.M.
The mark [6] stands for this setting: Mus musculus, IFN-γ/LPS-stimulated RAW 264.7 cells.
The mark [7] stands for this setting: Mus musculus, RAW264.7, IFN-γ/LPS-stimulated RAW 264.7 cells, read-out: NO Inhibition IC50 (µM) ± S.E.M.
[8] abbreviates: Mus musculus, RAW264.7, Table 6, NO suppression IC50 used for QSAR, unit inferred, read-out: IC50.
The mark [9] stands for this setting: Mus musculus, RAW264.7, −log IC50 of NO suppression, read-out: pIC50 (converted).

The inhibition is the relative decrease from the control value, in per cent. Take `O=C(/C=C(O)/C=C/c1ccc(O)cc1)c1ccccc1O` [Compound 81]: the IC50 in series [1] is 94.13 ± 0.917 µM; in the series on RAW 264.7 cells it was greater than 100 µM; in series [2] (setting [5]), less than 20 µM; in series [2] (setting [7]), 19.1 ± 0.644 µM; in series [2] (setting [8]), 19.1 ± 0.6 µM; in series [2] (setting [9]), 19.1 µM. Also, the “NO Inhibition at 50 µM (%) ± S.E.M” value in series [2] (setting [4]) is recorded as 91.5 ± 3.9%. Besides, in series [2] (setting [6]), the inhibition at 50 µM was determined as 91.5 ± 3.86%.
For the molecule `O=C(/C=C(O)/C=C/c1ccccc1O)c1cc(Cl)ccc1O` [Compound 84], the IC50 is 40.9 ± 1.63 µM in series [1]; 53.1 ± 1 µM in the series with RAW 264.7 cells; less than 20 µM in series [2] (setting [5]); 15.9 ± 0.947 µM in series [2] (setting [7]); 15.9 ± 0.9 µM in series [2] (setting [8]); 15.8 µM in series [2] (setting [9]). Moreover, in series [2] (setting [6]), the inhibition at 50 µM turned out to be 95.2 ± 0.9%.
`O=C(/C=C(O)/C=C/c1cccc(O)c1)c1cc(Cl)ccc1O` [Compound 85]: the IC50 in series [1] was 53.1 ± 0.973 µM; with RAW 264.7 cells, 89.1 ± 1.1 µM; in series [2] (setting [7]) it was 26.9 ± 0.796 µM; in series [2] (setting [8]), 26.9 ± 0.8 µM; in series [2] (setting [9]), 26.9 µM. Moreover, in series [2] (setting [4]), the “NO Inhibition at 50 µM (%) ± S.E.M” value is 95.9 ± 0.5%. Also, in series [2] (setting [6]), the inhibition at 50 µM stood at 95.86 ± 0.45%.
Turning to `O=C(/C=C(O)/C=C/c1ccc(O)cc1)c1cc(Cl)ccc1O` [Compound 86], the IC50 was 89.1 ± 1.08 µM in series [1]; 66 ± 1.2 µM with RAW 264.7 cells; less than 20 µM in series [2] (setting [5]); 18.7 ± 0.786 µM in series [2] (setting [7]); 18.7 ± 0.8 µM in series [2] (setting [8]); 18.6 µM in series [2] (setting [9]). Besides, in series [2] (setting [4]), the “NO Inhibition at 50 µM (%) ± S.E.M” value was 90.3 ± 2.7%. Moreover, in series [2] (setting [6]), the inhibition at 50 µM worked out at 90.3 ± 2.66%.
As to `O=C(/C=C(O)/C=C/c1cc(O)ccc1O)c1cc(Cl)ccc1O` [Compound 87], the IC50 was 66 ± 1.21 µM in series [1]; 49.5 ± 1.7 µM with RAW 264.7 cells; 32.3 ± 0.865 µM in series [2] (setting [7]); 32.3 ± 0.9 µM in series [2] (setting [8]); 32.4 µM in series [2] (setting [9]). Besides, the “NO Inhibition at 50 µM (%) ± S.E.M” value in series [2] (setting [4]) was determined as 96.5 ± 1.4%. Besides, the inhibition at 50 µM in series [2] (setting [6]) stood at 96.5 ± 1.42%.
As to `O=C(/C=C(O)/C=C/c1ccc(O)c(O)c1)c1cc(Cl)ccc1O` [Compound 88], the IC50 was 56.4 ± 1.19 µM in series [1]; 40.9 ± 1.6 µM with RAW 264.7 cells; 4.89 ± 0.312 µM in series [2] (setting [7]); 4.9 ± 0.3 µM in series [2] (setting [8]); 4.9 µM in series [2] (setting [9]). Moreover, the “NO Inhibition at 50 µM (%) ± S.E.M” value in series [2] (setting [4]) stood at 99.7 ± 1.2%. The inhibition at 50 µM in series [2] (setting [6]) came to 99.7 ± 1.15%. Besides, the “Chemical stability (ultraviolet spectral changes)” value in series [3] is on record as “excellent chemical stability; also recorded: no significant changes”.
For the molecule `O=C(/C=C(O)/C=C/c1ccccc1O)c1cc(O)ccc1O` [Compound 89], the IC50 was 67.3 ± 0.552 µM in series [1], 72.6 ± 2.6 µM in the series on RAW 264.7 cells, 31 ± 2 µM in series [2] (setting [7]) and 30.9 µM in series [2] (setting [9]). Moreover, the “NO Inhibition at 50 µM (%) ± S.E.M” value in series [2] (setting [4]) turned out to be 83.6 ± 2.0%. Also, in series [2] (setting [6]), the inhibition at 50 µM stood at 83.6 ± 2%.
`O=C(/C=C(O)/C=C/c1cccc(O)c1)c1cc(O)ccc1O` [Compound 90]: the values for the IC50 (in series [1]; in the series on RAW 264.7 cells; in series [2] (setting [9])) were greater than 100 µM, 85 ± 1.4 µM and 35.5 µM, respectively. In addition, the “NO Inhibition at 50 µM (%) ± S.E.M” value in series [2] (setting [4]) is 90.9 ± 2.0%. For the same molecule, the inhibition at 50 µM in series [2] (setting [6]) stood at 90.9 ± 2.02%.
As to `O=C(/C=C(O)/C=C/c1ccco1)c1cc(O)ccc1O` [Compound 91], the IC50 is greater than 100 µM in series [1]; 94.1 ± 0.9 µM in the series on RAW 264.7 cells; 75 ± 4.9 µM in series [2] (setting [7]); 75 ± 4.9 µM in series [2] (setting [8]); 74.1 µM in series [2] (setting [9]). Also, the “NO Inhibition at 50 µM (%) ± S.E.M” value in series [2] (setting [4]) is on record as 83.6 ± 2.8%. In series [2] (setting [6]), the inhibition at 50 µM is 83.6 ± 2.84%.
Consider `O=C(/C=C(O)/C=C/c1ccccc1)c1ccc(O)cc1O` [Compound 93], for which the IC50 in series [1] was 59.46 ± 0.511 µM; in the series with RAW 264.7 cells, 59.5 ± 0.5 µM; in series [2] (setting [7]), 29.9 ± 0.444 µM; in series [2] (setting [8]) it was 29.9 ± 0.4 µM; in series [2] (setting [9]) it was 30.2 µM. Further, the “NO Inhibition at 50 µM (%) ± S.E.M” value in series [2] (setting [4]) turned out to be 94.7 ± 2.3%. The inhibition at 50 µM in series [2] (setting [6]) was 94.7 ± 2.28%.
Turning to `O=C(/C=C(O)/C=C/c1cccc(O)c1)c1ccc(O)cc1O` [Compound 94], the IC50 is 70.1 ± 1.8 µM in series [1]; 70.1 ± 1.8 µM in the series on RAW 264.7 cells; 24.8 ± 0.4 µM in series [2] (setting [7]); 24.8 ± 0.4 µM in series [2] (setting [8]); 24.5 µM in series [2] (setting [9]). The “NO Inhibition at 50 µM (%) ± S.E.M” value in series [2] (setting [4]) is on record as 95.4 ± 1.5%. For the same molecule, the inhibition at 50 µM in series [2] (setting [6]) was 95.4 ± 1.45%.
In the case of `O=C(/C=C(O)/C=C/c1ccc(O)c(O)c1)c1ccccc1O` [Compound 97], the IC50 in series [1] is greater than 100 µM; in series [2] (setting [7]), 9.56 ± 0.468 µM; in series [2] (setting [8]) it was 9.6 ± 0.5 µM; in series [2] (setting [9]), 9.55 µM. Moreover, the “NO Inhibition at 50 µM (%) ± S.E.M” value in series [2] (setting [4]) came out at 98.9 ± 1.6%. For the same molecule, in series [2] (setting [6]), the inhibition at 50 µM is 98.9 ± 1.58%. Moreover, in series [3], the “Chemical stability (ultraviolet spectral changes)” value is “excellent chemical stability; also recorded: no significant changes”.
Take `COc1cc(/C=C/C(=O)CC(=O)/C=C/c2ccc(O)c(OC)c2)ccc1O` [Curcumin, curcumin, reference compound]: the IC50 came to 28.8 ± 0.77 µM in series [1], 28.8 ± 0.8 µM in the series on RAW 264.7 cells, 14.7 ± 0.2 µM in series [2] (setting [5]) and 14.7 ± 0.24 µM in series [2] (setting [7]). Moreover, the “NO Inhibition at 50 µM (%) ± S.E.M” value in series [2] (setting [4]) came to 99.3 ± 0.2%. Also, in series [2] (setting [6]), the inhibition at 50 µM worked out at 99.33 ± 0.2%. For the same molecule, the “Chemical stability (ultraviolet spectral changes)” value in series [3] was “gradually decreased over time”.
